Laboratory results reported in patent publication US7812116B2, “Immunogenic peptides” (Rush University Medical Center, priority 2003, dated 2010).

Tests used:
[1] = molecular target: HLA-A2.1 (Homo sapiens, UniProt P04439, D140Y/D185E/D98H/E176V/E277Q/G131W/G231S/I119V/I121R/I166T/I218V/L300P/L318F/N151K/N90K/P208A/P217A/Q86G/Q94H/R138H/R169H/T345S); test: Peptide/HLA-A2.1 complex stability on T2 cells under Brefeldin A treatment; assay type: binding
[2] = test system: dendritic cells; test: Phenotypic analysis of mature dendritic (mDC) and T2 antigen-presenting cells; assay type: cell-based, human; conditions: DCs from CD14+ monocytes, maturation factor during last three days of culture
Method: Immature DCs can be generated according to modified protocols of Romani N, et al., J Exp Med 180, pp. 83-89, 1994; and Bakker et al., Cancer Res 55, pp. 5330-5334, 1995. Briefly, fresh or frozen/thawed CD14+cells are cultured in RPMI 1640 medium (Gibco-Life Technologies, Gaithersburg, Md.) supplemented with 10% FCS, 1,000 U/ml GM-CSF and 1,000 U/ml IL-4. The cell cultures are fed with fresh medium and GM-CSF and IL-4 every other day and cell differentiation is monitored by light microscopy. On day 7, the cultures are supplemented with different combinations of DC maturation factors such as lipopolysaccharide (100 U/ml), TNF-α (10 ng/ml), or IFN-α (1,000 U/ml) plus TNF-α (10 ng/ml). After three days of incubation, mature DCs (mDC) are harvested and their phenotypes are evaluated by flow cytometry. The maturation factor(s) yielding optimal DC maturation are determined and used to generate mDCs for peptide pulsing in upcoming studies. In this example, immature DCs obtained by the culture of CD14+monocytes with GM-CSF (1,000 U/ml) and IL-4 (1,000 U/ml) are induced to undergo maturation by incubation with LPS (100 Units/ml), TNF-α (10 ng/ml) or TNF-α (10 ng/ml)+IFN-γ (50 ng/ml) during the final three days of the culture period. […] HLA-DR and no expression of CD3 or CD14 (data not shown). The highest up-regulation of the co-immunostimulatory (CD80 and CD86) and HLA-A2.1 MHC class I molecules is detected on DCs treated with TNF-α+IFN-γ (Table 5). […] The phenotype of the T2 cell line is evaluated to determine its potential for use as an alternative type of antigen presenting cell. […] The expression of CD80 is higher on T2 cells compared to mDCs.

Substance | HLA-A2.1 binding and stability in words [1] | CD80 mean channel fluorescence (MCF) [2] | CD86 mean channel fluorescence (MCF) [2] | HLA-A2.1 mean channel fluorescence (MCF) [2]
LLFLTPMEV (listed as Homo sapiens) [SEQ ID NO: 3, CD19 9-mer fragment] | good and prolonged stable binding | – | – | –
SLFLGILSV (listed as Homo sapiens) [SEQ ID NO: 6, CD20 9-mer fragment] | good and prolonged stable binding | – | – | –
TLAYLIFCL (listed as Homo sapiens) [SEQ ID NO: 2, CD19 9-mer fragment] | good and prolonged stable binding | – | – | –
TNF-α | – | 107 | 96 | 475
lipopolysaccharide [LPS, reference compound] | – | 71 | 40 | 316
